From US5741811A, “Polythiophene anti-tumor agents” (Purdue Research Foundation, priority 1996, dated 1998)
Where two headings read alike, the source gives them in different places.

Key:
Test in all cases: NCI human tumor cell line panel growth inhibition
Assay type in all cases: cell-based
[1] = tested on: A549/ATCC lung cancer cells; conditions: for GI50: Homo sapiens, read-out: Log10 GI50 (converted)
HOP-18 lung cancer cells = tested on: HOP-18 lung cancer cells
HOP-62 lung cancer cells = tested on: HOP-62 lung cancer cells
[2] = tested on: NCI-H226 lung cancer cells; conditions: for GI50: Homo sapiens, read-out: Log10 GI50 (converted)
[3] = tested on: NCI-H322M lung cancer cells; conditions: for GI50: Homo sapiens, read-out: Log10 GI50 (converted)
[4] = tested on: NCI-H460 lung cancer cells; conditions: for GI50: Homo sapiens, read-out: Log10 GI50 (converted)
[5] = tested on: NCI-H522 lung cancer cells; conditions: read-out: Log10 GI50 (converted)
[6] = tested on: LXPL-529 lung cancer cells; conditions: for GI50: Homo sapiens, read-out: Log10 GI50 (converted)
[7] = tested on: COLO-205 colon cancer cells; conditions: COLO-205, colon cancer; for GI50: Homo sapiens, read-out: Log10 GI50 (converted)
DLD-1 colon cancer cells = conditions: for GI50: Homo sapiens, read-out: Log10 GI50 (converted)
[8] = tested on: HCT-116 colon cancer cells; conditions: for GI50: Homo sapiens, read-out: Log10 GI50 (converted)
[9] = tested on: HCT-15 colon cancer cells; conditions: for GI50: Homo sapiens, read-out: Log10 GI50 (converted)
HT29 colon cancer cells = conditions: for GI50: Homo sapiens, HT-29, read-out: Log10 GI50 (converted)
[10] = tested on: KM20L2 colon cancer cells; conditions: for GI50: Homo sapiens, KM-20L2, read-out: Log10 GI50 (converted)
[11] = tested on: OVCAR-8 ovarian cancer cells; conditions: for GI50: Homo sapiens, read-out: Log10 GI50 (converted)
Description: (§1) The first screen measures the cytotoxicity against a panel of sixty different human tumor cell lines. This assay provides data regarding the general cytotoxicity of an individual compound.
(§2) The length of a bar is indicative of differential cytotoxicity against a specific type of tumor cells or tumor panels.
(§3) The antitumor cytotoxicity of the thiophene compounds tested in the first two in vitro assays was measured by a microculture assay using either 3-(4,5-dimethylthiazol-2-yl)-2,5-diphenyltetrazolium bromide (MTT) or sulforhodamine B (SRB). [M. R. Boyd in "Principles and Practices of Oncology," V. T. DeVita, Jr., S. Hellman and S. A. Rosenberg (Eds.), Vol. 3, PPO Updates, Number 10, 1989.] This assay has an advantage over in vivo assay in that results are obtained within a week as opposed to several months. The assay was carried out in 96-well microtiter plates. The MTT assay is based on the production of a dark blue formazan product by dehydrogenase in the mitochondria of live tumor cells after exposure to drug for 6 days [M. C. Alley, D. A. Scudiero, A. Monks, M. L. Hursey, M. J. Czerwinski, D. L. Fine, B. J. Abbott, J. G. Mayo, R. H. Shoemaker and M. R. Boyd, Cancer Res., 48, 589, 1988.] Thus, only live cells are stained and can be measured at 570 nm. The SRB assay is based on the binding of the anionic group to the basic amino acid residues of cellular proteins after exposure of tumor cells to drug for 2 days [P. Skehan, R. Storeng, D. Scudiero, A. Monks, J. McMahon, D. Vistica, J. T. Warren, H. Bohesch, S. Kenney and M. R. Boyd, J. Nat. Cancer Inst., 82, 1107, 1990.] Thus, the total protein (viability) can be measured at 564 nm.

[12] = tested on: SW-620 colon cancer cells; conditions: for GI50: Homo sapiens, read-out: Log10 GI50 (converted)
Description: as §1, §2, §3

XP-498 CNS cancer cells = conditions: read-out: Log10 GI50 (converted)
Description: as §1, §2, §3

SF-295 CNS cancer cells = conditions: read-out: Log10 GI50 (converted)
SNB-75 CNS cancer cells = conditions: Homo sapiens, read-out: Log10 GI50 (converted)
U251 CNS cancer cells = conditions: Homo sapiens, U-251, read-out: Log10 GI50 (converted)
UACC-257 melanoma cells = conditions: for GI50: Homo sapiens, read-out: Log10 GI50 (converted)
[13] = tested on: OVCAR-3 ovarian cancer cells; conditions: for GI50: Homo sapiens
[14] = tested on: OVCAR-5 ovarian cancer cells; conditions: for GI50: Homo sapiens, read-out: Log10 GI50 (converted)
786-0 renal cancer cells = conditions: read-out: Log10 GI50 (converted)
[15] = tested on: CAKI-1 renal cancer cells; conditions: for GI50: Homo sapiens
[16] = tested on: RXF-393 renal cancer cells; conditions: for GI50: Homo sapiens, read-out: Log10 GI50 (converted)
[17] = tested on: RXF-631 renal cancer cells; conditions: Homo sapiens, read-out: Log10 GI50 (converted)
TK-10 renal cancer cells = conditions: for GI50: Homo sapiens, read-out: Log10 GI50 (converted)
UO-31 renal cancer cells = conditions: read-out: Log10 GI50 (converted)
[18] = tested on: IGROV-1 ovarian cancer cells; conditions: for GI50: Homo sapiens, read-out: Log10 GI50 (converted)
[19] = tested on: HCC-2998 colon cancer cells
SNB-19 CNS cancer cells = tested on: SNB-19 CNS cancer cells
HOP-92 lung cancer cells = tested on: HOP-92 lung cancer cells
Text: (§4) The cytotoxic activity of the present polythiophene compounds have been measured utilizing three different assays or screens. The first screen measures the cytotoxicity against a panel of sixty different human tumor cell lines. This assay provides data regarding the general cytotoxicity of an individual compound. In particular this type of assay is useful in identifying compounds which have enhanced cytotoxic activity against slow growing tumors as compared to faster growing tumor cells such as leukemia tumor cell lines. The identification of such compounds is critical since previously identified antitumor agents have low cytotoxic activity against slower growing tumors. […] The specificity of a cytotoxic compound for tumor cell lines relative to normal cells is an important characteristic of an effective antitumor agent.
as §2, §3

KM12 colon cancer cells = tested on: KM12 colon cancer cells
Text: as §4, §2, §3

[20] = tested on: OVCAR-4 ovarian cancer cells
Text: as §4, §2, §3

UACC-62 melanoma cells = tested on: UACC-62 melanoma cells
[21] = tested on: SK-OV-3 ovarian cancer cells
A-498 renal cancer cells = tested on: A-498 renal cancer cells
EKVX lung cancer cells = conditions: read-out: Log10 GI50 (converted)
[22] = tested on: NCI-H23 lung cancer cells; conditions: read-out: Log10 GI50 (converted)
SF-268 CNS cancer cells = conditions: read-out: Log10 GI50 (converted)
MALME-3M melanoma cells = conditions: read-out: Log10 GI50 (converted)
M-14 melanoma cells = conditions: M14, read-out: Log10 GI50 (converted)
SK-MEL-2 melanoma cells = conditions: read-out: Log10 GI50 (converted)
SK-MEL-28 melanoma cells = conditions: read-out: Log10 GI50 (converted)
Text: as §4, §2, §3

ACHN renal cancer cells = conditions: read-out: Log10 GI50 (converted)
SN12C renal cancer cells = conditions: read-out: Log10 GI50 (converted)
[23] = Homo sapiens, read-out: Log10 GI50 (converted)
[24] = CAKI-1, renal cancer, read-out: Log10 GI50 (converted)

`OCc1ccc(-c2cccs2)s1` showed a GI50 [1] of 8.91 µM, a GI50 (HOP-18 lung cancer cells; [23]) of 10.5 µM and a GI50 (HOP-62 lung cancer cells; [23]) of 9.77 µM. The GI50 [2] was 0.316 µM, the GI50 [3] was 30.2 µM and the GI50 [4] was 1.35 µM. The GI50 [5] was 95.5 µM, the GI50 [6] was 0.288 µM and the GI50 [7] was 3.63 µM. For the same molecule, the GI50 (DLD-1 colon cancer cells) was 0.316 µM, the GI50 [8] was 4.57 µM and the GI50 [9] was 35.5 µM. The GI50 (HT29 colon cancer cells) was 8.51 µM, the GI50 [10] was 1.58 µM and the GI50 [11] was 52.5 µM. The GI50 [12] was 4.68 µM, the GI50 (XP-498 CNS cancer cells) was 3.72 µM and the GI50 (SF-295 CNS cancer cells) was 38 µM. For the same molecule, the GI50 (SNB-75 CNS cancer cells) was 0.389 µM, the GI50 (U251 CNS cancer cells) was 0.457 µM and the GI50 (UACC-257 melanoma cells) was 0.933 µM. It also gave a GI50 ([13]; OVCAR-3, read-out: Log10 GI50 (converted)) of 2.34 µM, a GI50 [14] of 12.9 µM and a GI50 (786-0 renal cancer cells) of 32.4 µM. For the same molecule, the GI50 ([15]; CAKI-1, read-out: Log10 GI50 (converted)) was 0.224 µM, the GI50 [16] was 57.5 µM and the GI50 [17] was 0.813 µM. For the same molecule, the GI50 (TK-10 renal cancer cells) was 0.234 µM and the GI50 (UO-31 renal cancer cells) was 38.9 µM.
With `OCc1ccc(-c2ccc(-c3ccc(-c4cccs4)s3)s2)s1` the GI50 [2] was 5.89 µM, the GI50 [6] was 1.05 µM and the GI50 (XP-498 CNS cancer cells) was 11 µM. For the same molecule, the GI50 (UACC-257 melanoma cells) was 10.7 µM, the GI50 [18] was 1.12 µM and the GI50 [15, 24] was 0.617 µM. It also gave a GI50 [17] of 11 µM and a GI50 (TK-10 renal cancer cells) of 0.891 µM.
With `OCc1ccc(-c2ccc(CO)s2)s1` [drawing 33] the “Log10 GI50” value [1] was -5.91 M, the “Log10 GI50” value (HOP-18 lung cancer cells) was -5.51 M and the “Log10 GI50” value (HOP-62 lung cancer cells) was -5.52 M. The “Log10 GI50” value [2] was -7.60 M, the “Log10 GI50” value [3] was -5.77 M and the “Log10 GI50” value [4] was -6.29 M. The “Log10 GI50” value [6] was -6.33 M, the “Log10 GI50” value [7] was -6.22 M and the “Log10 GI50” value (DLD-1 colon cancer cells) was -4.74 M. The “Log10 GI50” value [19] was -6.40 M, the “Log10 GI50” value [8] was -5.27 M and the “Log10 GI50” value [9] was -4.19 M. For the same molecule, the “Log10 GI50” value (HT29 colon cancer cells) was -5.04 M, the “Log10 GI50” value [10] was -6.15 M and the “Log10 GI50” value [11] was -5.23 M. The “Log10 GI50” value [12] was -5.04 M, the “Log10 GI50” value (SNB-19 CNS cancer cells) was -4.72 M and the “Log10 GI50” value (HOP-92 lung cancer cells) was -4.09 M. For the same molecule, the “Log10 GI50” value (KM12 colon cancer cells) was -4.35 M, the “Log10 GI50” value [20] was -4.46 M and the “Log10 GI50” value (UACC-257 melanoma cells) was -6.00 M. The “Log10 GI50” value (UACC-62 melanoma cells) was -6.36 M, the “Log10 GI50” value [18] was -6.57 M and the “Log10 GI50” value ([13]; OVCAR-3, ovarian cancer) was -5.70 M. The “Log10 GI50” value [14] was -6.06 M, the “Log10 GI50” value [21] was -5.80 M and the “Log10 GI50” value (A-498 renal cancer cells) was -7.71 M. For the same molecule, the “Log10 GI50” value ([15]; CAKI-1, renal cancer) was -6.63 M, the “Log10 GI50” value [16] was -7.05 M and the “Log10 GI50” value (TK-10 renal cancer cells) was -6.29 M.
For `O=Cc1ccc(-c2ccc(-c3cccs3)s2)s1` [drawing 32], the GI50 [1] was 32.4 µM, the GI50 (EKVX lung cancer cells) was 55 µM and the GI50 [22] was 55 µM. It also gave a GI50 [2] of 0.0245 µM, a GI50 [3] of 42.7 µM and a GI50 [4] of 13.8 µM. The GI50 [5] was 32.4 µM, the GI50 [6] was < 0.01 µM and the GI50 [7] was 5.37 µM. For the same molecule, the GI50 (DLD-1 colon cancer cells) was 7.94 µM, the GI50 [19, 23] was 17.8 µM and the GI50 [8] was 0.0631 µM. It also gave a GI50 [9] of 24 µM, a GI50 (HT29 colon cancer cells) of 24.5 µM and a GI50 [10] of 0.49 µM. It also gave a GI50 [11] of 53.7 µM, a GI50 [12] of 0.537 µM and a GI50 (SF-268 CNS cancer cells) of 87.1 µM. For the same molecule, the GI50 (SF-295 CNS cancer cells) was 69.2 µM, the GI50 (SNB-75 CNS cancer cells) was 31.6 µM and the GI50 (MALME-3M melanoma cells) was 79.4 µM. It also gave a GI50 (M-14 melanoma cells) of 63.1 µM, a GI50 (SK-MEL-2 melanoma cells) of 30.9 µM and a GI50 [20, 23] of 30.9 µM. For the same molecule, the GI50 (SK-MEL-28 melanoma cells) was 89.1 µM, the GI50 (UACC-257 melanoma cells) was 0.0468 µM and the GI50 (UACC-62 melanoma cells; [23]) was 0.01 µM. The GI50 [18] was 0.0603 µM, the GI50 ([13]; OVCAR-3, ovarian cancer, read-out: Log10 GI50 (converted)) was 0.0302 µM and the GI50 [14] was 0.138 µM. For the same molecule, the GI50 [21, 23] was 87.1 µM, the GI50 (786-0 renal cancer cells) was 43.7 µM and the GI50 (A-498 renal cancer cells; Homo sapiens, A498, read-out: Log10 GI50 (converted)) was 0.0437 µM. It also gave a GI50 (ACHN renal cancer cells) of 51.3 µM, a GI50 [15, 24] of 0.0138 µM and a GI50 [16] of 16.6 µM. The GI50 (SN12C renal cancer cells) was 47.9 µM, the GI50 (TK-10 renal cancer cells) was 0.525 µM and the GI50 (UO-31 renal cancer cells) was 41.7 µM.
